Where two headings read alike, the source gives them in different places.
Assays:
[1] = tested on: Achromobacter xylosoxidans (intact bacteria); test: [3H]adenine competition binding, intact bacteria; settings: for activity at Achromobacter binding sites: A. xylosoxidans binding studies
rat adenine receptor [2] = biological target: T1, rat adenine receptor (Rattus norvegicus, UniProt Q7TN49); settings: read-out: IC50 previously determined for the rat adenine receptor; cited from earlier work
T1 sequence (Q7TN49 1-304): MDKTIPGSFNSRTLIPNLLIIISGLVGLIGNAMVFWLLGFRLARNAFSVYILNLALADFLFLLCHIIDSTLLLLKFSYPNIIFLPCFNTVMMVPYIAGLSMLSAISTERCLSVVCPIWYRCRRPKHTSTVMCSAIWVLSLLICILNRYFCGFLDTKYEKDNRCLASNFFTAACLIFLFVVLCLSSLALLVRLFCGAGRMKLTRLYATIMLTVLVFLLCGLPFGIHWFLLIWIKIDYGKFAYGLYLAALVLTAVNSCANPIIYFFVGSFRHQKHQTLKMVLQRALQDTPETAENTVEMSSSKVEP

Saccharomyces cerevisiae = test: [3H]adenine binding to yeast control organism; settings: data not shown
[3] = tested on: microbial contaminations in Tris-HCl buffer; test: Radioligand binding to stored; settings: no added protein
[4] = biological target: A. xylosoxidans membrane preparations; test: [3H]adenine homologous competition, bacterial membrane preparations; type: binding, Achromobacter xylosoxidans; settings: estimated from homologous competition, n = 3
[5] = biological target: A. denitrificans (intact bacteria); test: [3H]adenine competition binding, intact bacteria; design: species or system Achromobacter denitrificans; settings: read-out: binding affinity (IC50); A. denitrificans intact cells
mouse adenine receptor = settings: cited from earlier work
[6] = tested on: A. denitrificans membrane preparations; test: [3H]adenine homologous competition, bacterial membrane preparations; design: species or system Achromobacter denitrificans; settings: read-out: binding affinity (IC50)
[7] = tested on: A. lwoffii membrane preparations; test: as above; type: binding, Acinetobacter lwoffii
[8] = biological target: A. lwoffii (intact bacteria); test: [3H]adenine competition binding, intact bacteria; design: species or system Acinetobacter lwoffii; settings: read-out: binding affinity (IC50); A. lwoffii intact cells
rat adenine receptor [9] = biological target: T1, rat adenine receptor; settings: read-out: IC50 previously determined for the rat adenine receptor; cited from earlier work; remark: listed apart in the source

**Q.** Which “activity at Achromobacter binding sites” value [1] does the source give for `Nc1nc(N)c2[nH]cnc2n1` [2,6-Diaminopurine] here?
**A.** The value was “completely inactive”.

**Q.** With `CCn1cnc2ncnc(N)c21` [7-ethyladenine] as the molecule, how does the IC50 (rat adenine receptor [2]) read?
**A.** Its IC50 is 47300 nM.

**Q.** With `Nc1nc(O)nc2nc[nH]c12` [2-Hydroxyadenine] as the molecule, how does the “activity at Achromobacter binding sites” value [1] read?
**A.** The value was “completely inactive”.

**Q.** Which results are given for `[3H]c1nc2ncnc(N)c2[nH]1` [[^3H]adenine, [8-^3H]Adenine]?
**A.** [3H]adenine binding (Saccharomyces cerevisiae): no [^3H]adenine binding; specific [3H]adenine binding ([3]; buffer stored 2 weeks at 4°C): 562 ± 19 cpm; specific [3H]adenine binding ([3]; buffer stored 6 weeks at 4°C): approximately 7,000 cpm

**Q.** Which “activity at Achromobacter binding sites” value [1] does the source give for `Nc1ncnc2c1ncn2[C@@H]1O[C@H](CO)[C@@H](O)[C@H]1O` [Adenosine] here?
**A.** Its value is “completely inactive”.

**Q.** What does the source list for `Nc1ncnc2nc[nH]c12` [Adenine]?
**A.** Kd [4]: 5.84 ± 1.12 nM; IC50 [5]: 253 nM; Kd ([1]; estimated from homologous competition, intact bacteria, n = 8): 11 ± 1.2 nM; IC50 ([1]; read-out: IC50 value for the A. xylosoxidans binding site, intact bacteria, versus 10 nM [3H]adenine): 13 nM; affinity for the mouse adenine receptor (mouse adenine receptor): 54.9 nM; IC50 [6]: 2400 nM; IC50 ([7]; contaminant 3 membrane preparation, versus 10 nM [3H]adenine, n = 1): 2350 nM; IC50 ([7]; read-out: binding affinity (IC50), A. lwoffii membrane preparations): 1000 nM; IC50 [8]: 299 nM; IC50 (rat adenine receptor [2]): 29.9 nM

**Q.** Which IC50 (rat adenine receptor [2]) does the source give for `Nc1ncnc2nc(Br)[nH]c12` [8-bromoadenine] here?
**A.** The IC50 was 17300 nM.

**Q.** With `C[C@H]1O[C@@H](n2cnc3c(N)ncnc32)[C@H](O)[C@@H]1O` [5′-deoxyadenosine] as the molecule, how does the IC50 (rat adenine receptor [9]) read?
**A.** The IC50 was 823 nM.
